Key:
Sirt5 = target: T1, Sirt5 (Homo sapiens, UniProt Q9NXA8); experiment: MS desuccinylation assay with succinyl-CPS1 peptide; format: biochemical
T1 construct: residues 34–302
T1 sequence (Q9NXA8 34-302): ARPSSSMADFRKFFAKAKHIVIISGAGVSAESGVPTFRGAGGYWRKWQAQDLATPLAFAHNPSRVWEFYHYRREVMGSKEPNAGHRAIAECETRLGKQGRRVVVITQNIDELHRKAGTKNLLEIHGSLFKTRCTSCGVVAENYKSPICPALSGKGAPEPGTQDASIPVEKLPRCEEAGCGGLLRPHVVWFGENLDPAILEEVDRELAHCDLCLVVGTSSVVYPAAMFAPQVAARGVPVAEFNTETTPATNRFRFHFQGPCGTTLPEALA

Sirt3 = target: T2, Sirt3 (Homo sapiens, UniProt Q9NTG7); experiment: MS deacetylation assay with acetyl-ACS2 peptide; format: biochemical
T2 construct: residues 118–399
T2 sequence (Q9NTG7 118-399): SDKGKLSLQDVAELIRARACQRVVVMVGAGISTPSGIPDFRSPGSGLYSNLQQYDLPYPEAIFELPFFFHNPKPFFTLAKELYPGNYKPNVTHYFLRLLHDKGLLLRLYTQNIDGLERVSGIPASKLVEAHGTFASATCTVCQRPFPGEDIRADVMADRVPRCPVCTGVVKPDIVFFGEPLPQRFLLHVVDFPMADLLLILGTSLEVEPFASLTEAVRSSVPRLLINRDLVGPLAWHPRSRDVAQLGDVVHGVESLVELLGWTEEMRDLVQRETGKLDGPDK

Sirt1 = target: T3, Sirt1 (Homo sapiens, UniProt Q96EB6); experiment: MS deacetylation assay with acetyl-p53 peptide; format: biochemical
T3 construct: Full length human Sirt1
T3 sequence (Q96EB6 2-747): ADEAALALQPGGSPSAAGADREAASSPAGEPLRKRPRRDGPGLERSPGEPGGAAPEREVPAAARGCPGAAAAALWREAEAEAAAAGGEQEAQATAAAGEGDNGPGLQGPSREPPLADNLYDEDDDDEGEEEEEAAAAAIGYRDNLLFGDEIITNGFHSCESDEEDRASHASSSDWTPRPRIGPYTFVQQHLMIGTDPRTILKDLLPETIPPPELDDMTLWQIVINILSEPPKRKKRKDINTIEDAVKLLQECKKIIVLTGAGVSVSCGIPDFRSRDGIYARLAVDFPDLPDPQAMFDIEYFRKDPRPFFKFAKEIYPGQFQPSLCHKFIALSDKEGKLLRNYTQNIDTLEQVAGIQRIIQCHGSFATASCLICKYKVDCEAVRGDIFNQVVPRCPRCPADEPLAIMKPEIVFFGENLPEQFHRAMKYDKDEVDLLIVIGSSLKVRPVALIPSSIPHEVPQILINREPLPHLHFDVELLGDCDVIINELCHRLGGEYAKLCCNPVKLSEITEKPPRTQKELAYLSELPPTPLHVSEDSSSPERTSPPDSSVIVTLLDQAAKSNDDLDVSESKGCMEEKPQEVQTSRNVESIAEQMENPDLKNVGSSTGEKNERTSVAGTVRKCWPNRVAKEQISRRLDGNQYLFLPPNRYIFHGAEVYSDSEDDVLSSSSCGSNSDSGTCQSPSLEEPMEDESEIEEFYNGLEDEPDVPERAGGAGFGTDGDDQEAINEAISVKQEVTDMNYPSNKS

Sirt6 [1] = target: T4, Sirt6 (Homo sapiens, UniProt Q8N6T7); experiment: crystal structure ([…] Å in Table […]); MS deacetylation assay (activation); format: binding
T4 construct: Sirt6(13–308) for crystals; Sirt6(1-355) for activity

Sirt6 [2] = target: T4, Sirt6; experiment: crystal structure at […] Å; MS deacetylation assay (activation at […]); format: binding

T4 sequence (Q8N6T7 whole entry): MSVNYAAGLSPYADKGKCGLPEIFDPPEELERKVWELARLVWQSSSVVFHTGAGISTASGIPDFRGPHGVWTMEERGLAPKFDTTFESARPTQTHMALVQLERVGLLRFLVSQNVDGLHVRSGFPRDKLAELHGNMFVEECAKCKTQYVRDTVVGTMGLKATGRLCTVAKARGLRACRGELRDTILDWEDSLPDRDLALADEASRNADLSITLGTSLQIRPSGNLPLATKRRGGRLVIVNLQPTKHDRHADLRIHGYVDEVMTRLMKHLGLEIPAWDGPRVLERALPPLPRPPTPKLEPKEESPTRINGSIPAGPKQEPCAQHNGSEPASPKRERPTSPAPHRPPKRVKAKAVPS

O=c1c(O)c(-c2ccc(O)c(O)c2)oc2cc(O)cc(O)c12 [compound 1, quercetin]
MS desuccinylation assay with succinyl-CPS1 peptide (Sirt5): Quercetin caused a concentration-dependent inhibition of all Sirtuin isoforms except for Sirt6
MS deacetylation assay with acetyl-ACS2 peptide (Sirt3): Quercetin caused a concentration-dependent inhibition of all Sirtuin isoforms except for Sirt6
MS deacetylation assay with acetyl-p53 peptide (Sirt1): Quercetin caused a concentration-dependent inhibition of all Sirtuin isoforms except for Sirt6

O=c1c(O[C@@H]2O[C@H](CO)[C@@H](O)[C@H](O)[C@H]2O)c(-c2ccc(O)c(O)c2)oc2cc(O)cc(O)c12 [compound 4, isoquercetin]
crystal structure (1.90 Å in Table 1); MS deacetylation assay (activation) (Sirt6 [1]): we determined a crystal structure of a Sirt6/ADP-ribose/isoquercetin complex

Oc1cc(O)c2cc(O)c(-c3ccc(O)c(O)c3)[o+]c2c1 [compound 6, cyanidin]
crystal structure at 2.10 Å; MS deacetylation assay (activation at 20-80 μM) (Sirt6 [2]): we solved a crystal structure of a Sirt6/ADP-ribose/cyanidin complex

Source: article PMC6914789 (Scientific Reports, 2019)
